The text below walks through data of ChEMBL document CHEMBL1201862, “PubChem BioAssay data set” (2004).

One experiment deals with T1, Mucolipin-3 (Homo sapiens, UniProt Q8TDD5).
T1 sequence (Q8TDD5 whole entry): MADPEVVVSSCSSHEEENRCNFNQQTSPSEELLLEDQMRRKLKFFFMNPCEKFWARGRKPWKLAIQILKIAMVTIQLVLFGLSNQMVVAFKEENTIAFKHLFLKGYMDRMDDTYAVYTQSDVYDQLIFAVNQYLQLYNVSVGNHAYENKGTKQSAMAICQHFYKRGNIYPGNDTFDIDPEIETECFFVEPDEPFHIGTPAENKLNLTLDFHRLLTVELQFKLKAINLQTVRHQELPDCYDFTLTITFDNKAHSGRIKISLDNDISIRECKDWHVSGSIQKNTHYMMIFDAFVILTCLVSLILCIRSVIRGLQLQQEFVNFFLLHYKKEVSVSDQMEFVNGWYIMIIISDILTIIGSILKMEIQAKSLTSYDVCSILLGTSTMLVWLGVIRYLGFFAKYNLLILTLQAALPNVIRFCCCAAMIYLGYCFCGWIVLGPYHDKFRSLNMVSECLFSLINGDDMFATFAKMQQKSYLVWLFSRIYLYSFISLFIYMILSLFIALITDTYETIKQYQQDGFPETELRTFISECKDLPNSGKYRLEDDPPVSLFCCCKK
The experiment can be described thus: Dose response cell-based high-throughput screening assay for agonists of the transient receptor potential channel ML3 (TRPML3). [Related pubchem assays: 1526, 1424, 1448 ]. The class given is functional.

The target of another experiment is Ion channel NompC (Danio rerio, UniProt Q7T1G6). Description: Fluorescence counterscreen assay for TRPML3 agonists: dose response cell-based high-throughput screening assay to identify agonists of the transient receptor potential channel N1 (TRPN1). [Related pubchem assays: 1526, 1424, 1448 ]. The class given is functional.
For the next experiment, the system named is H4. The experiment can be described thus: Luminescence Cell-Based Dose Response HTS to Identify Activators of 5'UTR Stem-Loop Driven Prion Protein mRNA Translation in H4 Neuroglioblastoma Cells. [Related pubchem assays: 1829 (Project Summary), 1814 (Primary HTS)]. In kind it is functional. As to conditions: Homo sapiens.
Experiment [1] concerns the target T2, Acyl-homoserine lactone acylase PvdQ (Pseudomonas aeruginosa (strain LESB58), UniProt Q9I194).
T2 sequence (Q9I194 whole entry): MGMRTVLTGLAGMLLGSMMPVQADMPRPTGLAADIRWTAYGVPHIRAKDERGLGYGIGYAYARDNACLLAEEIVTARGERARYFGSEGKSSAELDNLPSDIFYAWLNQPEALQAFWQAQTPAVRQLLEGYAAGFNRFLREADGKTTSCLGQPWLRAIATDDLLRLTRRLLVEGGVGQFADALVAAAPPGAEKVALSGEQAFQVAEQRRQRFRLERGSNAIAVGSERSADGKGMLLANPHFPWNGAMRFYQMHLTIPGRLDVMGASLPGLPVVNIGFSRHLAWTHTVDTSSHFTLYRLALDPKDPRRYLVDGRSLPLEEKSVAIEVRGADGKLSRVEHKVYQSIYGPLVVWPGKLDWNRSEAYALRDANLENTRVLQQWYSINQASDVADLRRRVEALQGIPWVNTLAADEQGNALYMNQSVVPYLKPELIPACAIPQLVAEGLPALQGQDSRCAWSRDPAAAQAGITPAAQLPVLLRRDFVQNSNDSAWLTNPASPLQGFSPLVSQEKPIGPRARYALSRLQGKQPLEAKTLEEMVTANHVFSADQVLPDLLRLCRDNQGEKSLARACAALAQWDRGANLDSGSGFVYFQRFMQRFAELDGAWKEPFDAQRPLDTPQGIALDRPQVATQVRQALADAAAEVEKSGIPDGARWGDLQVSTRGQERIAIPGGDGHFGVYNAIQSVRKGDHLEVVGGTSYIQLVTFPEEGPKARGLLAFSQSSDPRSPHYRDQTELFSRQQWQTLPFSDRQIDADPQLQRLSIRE
The experiment can be described thus: P. aeruginosa PvdQ acylase inhibitors, dose response, biochemical, fluorescence, plate reader and imaging, cherry-picks (AID 493231).

Experiment [2] can be described thus: Luminescence Cell-Based Dose Response HTS to Identify Activators of Luciferase Translation or Activity in H4 […] Cells. [Related pubchem assays: 1829 (Project Summary), 1814 (Primary HTS)]. The class given is functional.
Experiment [3] is described as follows: Luminescence Cell-Based Dose Confirmation HTS to Identify Activators of 5'UTR Stem-Loop Driven Alpha-Synuclein mRNA Translation in H4 Neuroglioblastoma Cells. [Related pubchem assays: 1829 (Project Summary), 1814 (Primary HTS)]. In kind it is functional.
Experiment [4] is described as follows: cytotoxicity in HEK-293T cells, dose response, cytotoxicity control for BCR NF-kB inhibitor project, luminescence, B-cell screen hits (AID 489021).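 Also: HEK-293T cells carrying an NF-kB luciferase reporter; cells exposed to compound for about 14 hours before viability readout.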 The class given is functional, cell-based.
Experiment [5] has as its target T3, Neuropeptide Y receptor type 2 (Homo sapiens, UniProt P49146).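 Also: HEK293 cells expressing the receptor and a CNG channel; stimulus was NPY near EC95 followed by isoproterenol to raise cAMP; antagonist potency measured as restoring cAMP signal that NPY suppresses.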
T3 sequence (P49146 whole entry): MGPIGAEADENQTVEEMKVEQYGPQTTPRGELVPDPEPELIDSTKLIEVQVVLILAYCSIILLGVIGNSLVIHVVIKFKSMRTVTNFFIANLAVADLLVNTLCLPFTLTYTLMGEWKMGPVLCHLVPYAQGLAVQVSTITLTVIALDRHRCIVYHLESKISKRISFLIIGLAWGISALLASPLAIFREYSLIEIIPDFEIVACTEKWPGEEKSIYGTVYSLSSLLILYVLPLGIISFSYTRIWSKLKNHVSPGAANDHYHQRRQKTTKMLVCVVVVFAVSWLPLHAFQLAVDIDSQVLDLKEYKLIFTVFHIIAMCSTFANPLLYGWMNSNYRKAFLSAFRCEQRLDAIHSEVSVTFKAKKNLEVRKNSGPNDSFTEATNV
The class given is functional, cell-based.

The target in experiment [6] is T4, Neuropeptide Y receptor type 1 (Homo sapiens, UniProt P25929).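 Also: HEK293 cells with a CNG channel challenged with NPY then isoproterenol; potency as antagonist that reverses NPY suppression of cAMP signal.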
T4 sequence (P25929 whole entry): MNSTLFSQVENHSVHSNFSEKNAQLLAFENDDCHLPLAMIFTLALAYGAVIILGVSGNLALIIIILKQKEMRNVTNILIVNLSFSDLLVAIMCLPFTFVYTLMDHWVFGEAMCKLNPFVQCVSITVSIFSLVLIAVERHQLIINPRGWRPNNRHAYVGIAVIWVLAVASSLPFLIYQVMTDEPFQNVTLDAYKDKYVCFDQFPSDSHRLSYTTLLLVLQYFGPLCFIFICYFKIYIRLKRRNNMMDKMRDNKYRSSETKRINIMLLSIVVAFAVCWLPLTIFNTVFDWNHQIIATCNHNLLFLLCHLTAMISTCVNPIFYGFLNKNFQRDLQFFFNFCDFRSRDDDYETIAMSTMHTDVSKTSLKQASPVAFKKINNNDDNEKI
The class given is functional.

The next experiment concerns the target T5, Aspartyl aminopeptidase (Plasmodium falciparum 3D7, UniProt Q8I2J3).
T5 sequence (Q8I2J3 whole entry): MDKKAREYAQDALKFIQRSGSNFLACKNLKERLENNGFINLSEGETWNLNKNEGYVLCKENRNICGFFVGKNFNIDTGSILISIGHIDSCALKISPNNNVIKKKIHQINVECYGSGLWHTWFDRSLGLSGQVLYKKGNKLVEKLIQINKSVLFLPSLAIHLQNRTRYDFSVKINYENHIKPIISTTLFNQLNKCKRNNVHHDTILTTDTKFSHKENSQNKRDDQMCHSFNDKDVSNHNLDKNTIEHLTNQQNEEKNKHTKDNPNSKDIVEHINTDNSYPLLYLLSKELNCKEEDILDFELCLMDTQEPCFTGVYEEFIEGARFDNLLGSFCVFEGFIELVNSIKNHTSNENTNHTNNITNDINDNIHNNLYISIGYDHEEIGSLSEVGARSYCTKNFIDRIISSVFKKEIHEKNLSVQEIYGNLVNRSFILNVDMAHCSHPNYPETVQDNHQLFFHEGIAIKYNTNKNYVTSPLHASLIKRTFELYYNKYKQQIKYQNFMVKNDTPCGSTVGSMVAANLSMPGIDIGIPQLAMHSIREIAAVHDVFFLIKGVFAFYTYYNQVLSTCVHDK

For the next experiment, the target named is Procathepsin L (Homo sapiens, UniProt P07711).
A further experiment deals with T6, Protein skinhead-1 (Caenorhabditis elegans, UniProt P34707).
T6 sequence (P34707 whole entry): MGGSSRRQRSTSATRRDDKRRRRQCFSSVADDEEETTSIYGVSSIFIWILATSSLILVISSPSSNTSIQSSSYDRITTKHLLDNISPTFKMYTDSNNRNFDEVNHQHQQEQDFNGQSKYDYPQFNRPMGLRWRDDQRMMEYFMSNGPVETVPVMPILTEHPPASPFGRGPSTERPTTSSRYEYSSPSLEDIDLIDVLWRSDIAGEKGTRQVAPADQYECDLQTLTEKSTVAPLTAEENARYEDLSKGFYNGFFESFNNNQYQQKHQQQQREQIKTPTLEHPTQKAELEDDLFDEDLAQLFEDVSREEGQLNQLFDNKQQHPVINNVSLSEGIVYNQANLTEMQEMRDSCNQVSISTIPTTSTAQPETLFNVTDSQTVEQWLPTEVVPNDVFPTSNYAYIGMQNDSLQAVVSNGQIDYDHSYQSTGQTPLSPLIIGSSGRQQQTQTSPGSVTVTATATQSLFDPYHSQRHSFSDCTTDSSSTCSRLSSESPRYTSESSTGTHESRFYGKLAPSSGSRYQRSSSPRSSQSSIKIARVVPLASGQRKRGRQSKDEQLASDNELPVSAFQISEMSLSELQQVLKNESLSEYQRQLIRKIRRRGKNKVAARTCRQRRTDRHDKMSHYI
In kind it is functional.

Experiment [7] can be described thus: Luminescence Cell-Based Dose Retest to Confirm Inhibitors of Cancer Stem Cells. [Related pubchem assays (depositor defined):AID2717, AID2721]. In kind it is functional. Particulars: Homo sapiens.

Each structure is given as a SMILES string. Calls of active or inactive are those of the source.

Procathepsin L, sequence (P07711 whole entry): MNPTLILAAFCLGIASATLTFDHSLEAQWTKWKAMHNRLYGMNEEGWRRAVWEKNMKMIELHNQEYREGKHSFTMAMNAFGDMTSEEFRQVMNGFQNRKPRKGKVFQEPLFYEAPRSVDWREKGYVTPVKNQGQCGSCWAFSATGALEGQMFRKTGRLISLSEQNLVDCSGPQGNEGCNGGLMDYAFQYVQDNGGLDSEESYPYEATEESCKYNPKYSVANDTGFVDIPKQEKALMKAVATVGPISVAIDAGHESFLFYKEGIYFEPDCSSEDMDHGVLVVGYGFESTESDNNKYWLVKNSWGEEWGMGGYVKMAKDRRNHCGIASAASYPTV
Ion channel NompC, sequence (Q7T1G6 whole entry): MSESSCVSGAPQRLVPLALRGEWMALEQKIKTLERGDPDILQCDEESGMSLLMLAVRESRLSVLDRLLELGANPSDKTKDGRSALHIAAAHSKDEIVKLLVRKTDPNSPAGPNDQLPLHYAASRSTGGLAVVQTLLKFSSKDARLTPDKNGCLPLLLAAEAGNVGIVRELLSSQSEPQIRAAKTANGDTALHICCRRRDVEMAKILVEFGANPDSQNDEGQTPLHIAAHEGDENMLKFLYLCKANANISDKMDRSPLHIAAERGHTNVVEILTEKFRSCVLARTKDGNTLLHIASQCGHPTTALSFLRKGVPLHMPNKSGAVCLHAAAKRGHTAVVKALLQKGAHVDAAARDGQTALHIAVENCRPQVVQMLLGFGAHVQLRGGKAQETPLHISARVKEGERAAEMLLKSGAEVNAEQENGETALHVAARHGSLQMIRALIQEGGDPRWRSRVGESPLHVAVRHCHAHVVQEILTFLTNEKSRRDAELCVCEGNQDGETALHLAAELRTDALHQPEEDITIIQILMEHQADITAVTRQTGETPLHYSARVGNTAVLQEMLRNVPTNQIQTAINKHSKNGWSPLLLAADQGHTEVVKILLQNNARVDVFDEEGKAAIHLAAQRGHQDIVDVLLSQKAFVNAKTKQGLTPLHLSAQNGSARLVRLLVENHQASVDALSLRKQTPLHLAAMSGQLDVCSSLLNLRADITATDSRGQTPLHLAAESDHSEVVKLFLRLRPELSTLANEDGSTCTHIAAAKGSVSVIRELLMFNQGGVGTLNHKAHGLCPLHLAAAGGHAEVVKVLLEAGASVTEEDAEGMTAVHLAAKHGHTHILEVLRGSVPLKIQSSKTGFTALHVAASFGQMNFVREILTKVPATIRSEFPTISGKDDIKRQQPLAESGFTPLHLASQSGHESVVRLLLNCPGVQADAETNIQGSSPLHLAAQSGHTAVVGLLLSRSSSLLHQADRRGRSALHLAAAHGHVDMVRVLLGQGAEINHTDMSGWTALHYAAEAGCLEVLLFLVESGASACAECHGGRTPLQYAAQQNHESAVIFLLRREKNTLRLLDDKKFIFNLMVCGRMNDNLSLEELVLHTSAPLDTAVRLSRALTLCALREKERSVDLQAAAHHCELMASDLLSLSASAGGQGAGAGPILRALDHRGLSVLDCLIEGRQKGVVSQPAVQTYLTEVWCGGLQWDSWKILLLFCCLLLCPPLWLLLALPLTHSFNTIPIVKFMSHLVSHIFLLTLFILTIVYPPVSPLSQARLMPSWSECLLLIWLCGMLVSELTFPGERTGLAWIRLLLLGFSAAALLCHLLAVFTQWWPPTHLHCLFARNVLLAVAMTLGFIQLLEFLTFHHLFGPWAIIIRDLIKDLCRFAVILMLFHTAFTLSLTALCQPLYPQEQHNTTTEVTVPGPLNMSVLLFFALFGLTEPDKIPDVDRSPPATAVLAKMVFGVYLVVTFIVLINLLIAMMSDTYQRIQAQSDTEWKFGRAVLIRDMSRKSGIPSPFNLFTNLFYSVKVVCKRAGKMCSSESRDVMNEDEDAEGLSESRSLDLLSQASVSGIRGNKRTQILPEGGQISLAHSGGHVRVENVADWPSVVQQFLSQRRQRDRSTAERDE

Turning to `COc1ccc(S(=O)(=O)N2CCCCCC2)cc1N(C)S(=O)(=O)c1ccccc1`, the EC50 on Mucolipin-3 was 3.92 µM (active); on Ion channel NompC it was > 29.9 µM (not active).

In the case of `CCOC(=O)c1cc2c(s1)-c1c(C)cccc1OC2`, the EC50 with H4 is 30.9 µM (active); in [2], 7.26 µM (active); in experiment [3], 39.8 µM (active). For the same molecule, the AC50 in experiment [1] was 0.443 µM (active).

With `N=c1ccn(Cc2c(Cl)cccc2Cl)cc1`, in experiment [4], the IC50 was > 80 µM (inactive).

`Cc1ccc(S(=O)(=O)c2c(C)nn(C(C)(C)C)c2OC(=O)C2CCCC2)cc1`: the EC50 at Mucolipin-3 and at Ion channel NompC was > 29.9 µM (not active) each time.

Consider `COc1ccc(/C=N/NC(=O)CN(CCc2ccccc2)S(=O)(=O)c2ccc(NC(C)=O)cc2)cc1OC`, for which the IC50 was 3.55 µM (active) in [5] and 10.4 µM (not active) in experiment [6].

Turning to `O=C(CNC(=O)c1ccccc1)NCCc1ccc(O)c(O)c1`, the results for the IC50 on Aspartyl aminopeptidase and against Procathepsin L were 1.81 µM (active) and > 59.6 µM (not active), respectively.

Take `CC(/C=C1\SC(=S)N(NC(=O)c2ccc(C)cc2)C1=O)=C\c1ccccc1`: the IC50 was 20.6 µM (not active) in experiment [5] and > 35 µM (not active) in experiment [6].

In the case of `COC(=O)c1ccc(NC(=S)N2CCCC2)cc1`, the AC50 in [1] was 10.3 µM (active).

On to `O=C(/C=C/c1ccccc1)Nn1cnnc1`, for which the IC50 is 1.76 µM (active) at Aspartyl aminopeptidase, > 59.6 µM (not active) against Procathepsin L and > 100 µM (inactive) on Protein skinhead-1.

As for `CCc1ccc2[nH]c3nc(N/N=C/c4cccc(O)c4)nnc3c2c1`, the IC50 in [4] was > 80 µM (inactive). In addition, the AC50 in [7] is < 0.16 µM (active).

As to `O=C(C=Cc1ccco1)c1cc(Cl)ccc1O`, the AC50 in experiment [1] was 21.6 µM (active).

Take `CCCCCCNS(=O)(=O)c1ccc(NC(=O)C2CCCO2)cc1` (stereo unspecified): the IC50 is 7.94 µM (active) in experiment [5] and 13.7 µM (not active) in experiment [6].

`COc1cc(Br)cc(/C=N/c2nc[nH]n2)c1O`: the IC50 was 2.35 µM (active) at Aspartyl aminopeptidase and > 59.6 µM (not active) against Procathepsin L.

What is called EC50 is the concentration giving half of the maximal effect. In general, AC50 refers to the concentration at which the activity in the assay is half-maximal. A word on the IC50: it is the midpoint of a concentration-inhibition curve.
